PubChem BioAssay (NCI)
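Test compounds were applied to cells in 96-well plates for 48 hours at 5 doses. The concentration for 50% growth inhibition is given as GI50. TGI: concentration producing complete growth inhibition.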

How the values were obtained:
Assay in all cases: inhibition of tumour cell growth, NCI panel, 48 h
IGROV1 ovarian = tested on: IGROV1 ovarian
UACC-62 melanoma = tested on: UACC-62 melanoma
SNB-19 CNS = tested on: SNB-19 CNS
MALME-3M melanoma = tested on: MALME-3M melanoma
ACHN renal = tested on: ACHN renal
M14 melanoma = tested on: M14 melanoma
HOP-92 NSCLC = tested on: HOP-92 NSCLC
U251 CNS = tested on: U251 CNS
786-0 renal = tested on: 786-0 renal
HS 578T breast = tested on: HS 578T breast

Row | Compound | TGI (IGROV1 ovarian) [µM] | TGI (UACC-62 melanoma) [µM] | TGI (SNB-19 CNS) [µM] | TGI (MALME-3M melanoma) [µM] | TGI (ACHN renal) [µM] | TGI (M14 melanoma) [µM] | TGI (HOP-92 NSCLC) [µM] | TGI (U251 CNS) [µM] | TGI (786-0 renal) [µM] | GI50 (IGROV1 ovarian) [µM] | GI50 (UACC-62 melanoma) [µM] | GI50 (SNB-19 CNS) [µM] | GI50 (MALME-3M melanoma) [µM] | GI50 (ACHN renal) [µM] | GI50 (M14 melanoma) [µM] | GI50 (U251 CNS) [µM] | GI50 (786-0 renal) [µM] | GI50 (HS 578T breast) [µM] | TGI (HS 578T breast) [µM] | GI50 (HOP-92 NSCLC) [µM]
1 | CO[C@@H]1C=C[C@@]23c4cc5c(cc4CN(C[C@@H]2O)[C@H]3C1)OCO5 | > 100 | 64.2 | > 100 | 76 | > 100 | 31.5 | 80.6 | 73.1 | > 100 | – | – | – | – | – | – | – | – | – | – | –
2 | Cc1cccc(-n2c(N)c(-c3nc4ccccc4[nH]3)sc2=S)c1 | 78 | 78.1 | > 100 | 74.4 | 99 | 48.4 | – | 43.2 | 54.1 | – | – | – | – | – | – | – | – | – | – | –
3 | N/N=C1\C(=O)N(Cc2ccccc2)C(=O)C1C(=O)NCc1ccccc1 (centres undefined) | > 100 | > 100 | > 100 | > 100 | > 100 | > 100 | > 100 | > 100 | > 100 | – | – | – | – | – | – | – | – | – | – | –
4 | COC(=O)c1ccccc1N(C(=O)c1ccccc1)c1ccccc1C | > 100 | > 100 | > 100 | > 100 | > 100 | 73.1 | – | > 100 | > 100 | – | – | – | – | – | – | – | – | – | – | –
5 | COc1cc(-c2nccc3cc(OC)c(OC)cc23)ccc1O | > 100 | > 100 | > 100 | > 100 | > 100 | > 100 | > 100 | > 100 | > 100 | – | – | – | – | – | – | – | – | – | – | –
6 | COc1ccc(/C(=N\NC(=O)NN)C(c2ccc(OC)cc2)C2(O)C(=O)Nc3c(Cl)cc(Cl)cc32)cc1 (centres undefined) | > 100 | > 100 | > 100 | > 100 | > 100 | > 100 | > 100 | > 100 | > 100 | – | – | – | – | – | – | – | – | – | – | –
7 | N#CC12CCC1C1CCCCC12N1CCSCC1 (centres undefined) | > 100 | > 100 | > 100 | – | > 100 | – | > 100 | > 100 | > 100 | – | – | – | – | – | – | – | – | – | – | –
8 | Cc1n[nH]c(=S)n(C)c1=S | > 100 | > 100 | > 100 | > 100 | > 100 | > 100 | > 100 | > 100 | > 100 | – | – | – | – | – | – | – | – | – | – | –
9 | N#CC(C(=O)C(=O)Nc1ccccc1)c1ccccc1 (centres undefined) | > 100 | > 100 | > 100 | > 100 | > 100 | > 100 | > 100 | > 100 | > 100 | – | – | – | – | – | – | – | – | – | – | –
10 | O=S(=O)(CCN1CCOCC1)Nc1cc(-c2ccc3ncnc(Nc4ccc(F)c(Cl)c4)c3c2)cnc1Cl | 0.515 | 1.09 | 4.85 | 0.93 | > 100 | 9.42 | – | 10.5 | > 100 | 0.137 | 0.153 | 0.453 | 0.115 | 0.735 | 0.754 | 0.909 | 0.41 | – | – | –
11 | Cc1ccc(-c2nc3ccccc3c(=O)n2NCC2(O)OCC(O)C(O)C2O)cc1 (centres undefined) | – | > 100 | > 100 | > 100 | > 100 | > 100 | – | > 100 | > 100 | – | – | – | – | – | – | – | – | – | – | –
12 | CCOC(=O)C(=O)Nc1nc2c(OCC)cccc2s1 | > 100 | > 100 | > 100 | > 100 | > 100 | > 100 | > 100 | > 100 | > 100 | – | – | – | – | – | – | – | – | – | – | –
13 | C=C(CO)CC(O)c1cc(OC)ccc1OC (centres undefined) | > 100 | > 100 | > 100 | > 100 | > 100 | > 100 | > 100 | > 100 | > 100 | – | – | – | – | – | – | – | – | – | – | –
14 | N#Cc1ccc(Cc2ccccn2)cc1Cl | > 100 | > 100 | > 100 | > 100 | > 100 | – | > 100 | > 100 | > 100 | – | – | – | – | – | – | – | – | – | – | –
15 | CCC[CH2][Sn]([CH2]CCC)([O]c1cccc2cccnc12)[O]c1cccc2cccnc12 | 2.27 | 0.421 | 0.873 | – | 0.853 | 0.369 | – | 0.368 | 0.607 | 1 | 0.193 | 0.312 | – | 0.458 | 0.186 | 0.198 | 0.237 | – | – | –
16 | O=C(Nc1cccc2c1C(=O)c1c(NC(=O)c3ccccc3)ccc(Nc3cccc4c3C(=O)c3ccccc3C4=O)c1C2=O)c1ccccc1 | > 100 | > 100 | > 100 | > 100 | > 100 | > 100 | – | > 100 | > 100 | – | – | – | – | – | – | – | – | – | – | –

Row | Compound | TGI (IGROV1 ovarian) [µM] | TGI (UACC-62 melanoma) [µM] | TGI (SNB-19 CNS) [µM] | TGI (MALME-3M melanoma) [µM] | TGI (ACHN renal) [µM] | TGI (M14 melanoma) [µM] | TGI (HOP-92 NSCLC) [µM] | TGI (U251 CNS) [µM] | TGI (786-0 renal) [µM] | GI50 (IGROV1 ovarian) [µM] | GI50 (UACC-62 melanoma) [µM] | GI50 (SNB-19 CNS) [µM] | GI50 (MALME-3M melanoma) [µM] | GI50 (ACHN renal) [µM] | GI50 (M14 melanoma) [µM] | GI50 (U251 CNS) [µM] | GI50 (786-0 renal) [µM] | GI50 (HS 578T breast) [µM] | TGI (HS 578T breast) [µM] | GI50 (HOP-92 NSCLC) [µM]
17 | O=C(/C=C\c1cccc2ccccc12)c1ccc(F)cc1 | 29.4 | 27.5 | 31 | 32.1 | 30.8 | 29.9 | 39.8 | 29.9 | 32.1 | – | – | – | – | – | – | – | – | – | – | –
18 | COc1ccc(/C=C2\CN(C(=O)C(Cl)Cl)C/C(=C\c3ccc(OC)cc3)C2=O)cc1 | – | – | – | 4.61 | 4.7 | – | – | – | 3.86 | – | – | – | 1.92 | 1.67 | – | – | 1.88 | 2.65 | > 100 | –
19 | CCOC(=O)C1SC(=Nc2ccc(OC)c(OC)c2)N=C1C (centres undefined) | > 100 | 67.9 | > 100 | 83.4 | > 100 | > 100 | > 100 | > 100 | 90.2 | – | – | – | – | – | – | – | – | – | – | –
20 | N#CC(/C(CCC(=O)Nc1ccc(Cl)cc1)=N/NC(=O)c1cc2ccccc2cc1O)c1ccccc1 (centres undefined) | > 100 | > 100 | > 100 | > 100 | > 100 | > 100 | > 100 | > 100 | > 100 | – | – | – | – | – | – | – | – | – | – | –
21 | N.N.N.N.N.NC(=O)[O-].[Co+3].[I-] | > 100 | > 100 | > 100 | > 100 | > 100 | > 100 | > 100 | > 100 | > 100 | > 100 | > 100 | > 100 | > 100 | > 100 | > 100 | > 100 | > 100 | – | – | > 100
22 | CC(C)N(O)C(=N)c1ccccc1 | – | – | > 100 | – | – | > 100 | > 100 | > 100 | > 100 | – | – | – | – | – | – | – | – | – | – | –
23 | COc1cc(OC)c(C(=O)c2cccs2)cc1N | > 100 | > 100 | > 100 | > 100 | > 100 | > 100 | – | > 100 | > 100 | – | – | – | – | – | – | – | – | – | – | –
24 | CC(CC(=O)N1C(=O)C(C)(C)[C@@H](O)[C@H]1CC(C)C(Cl)(Cl)Cl)C(Cl)(Cl)Cl (some centres undefined) | > 100 | > 100 | > 100 | > 100 | > 100 | > 100 | > 100 | > 100 | > 100 | – | – | – | – | – | – | – | – | – | – | –
25 | O=C/C1=C/C2=Cc3ccccc3C=C(/C=C(/C=O)C1)C2 | > 100 | > 100 | > 100 | > 100 | > 100 | > 100 | 87.9 | > 100 | > 100 | – | – | – | – | – | – | – | – | – | – | –
26 | CCC(=O)N1C(=O)OCC1C(C)C (centres undefined) | > 100 | > 100 | > 100 | > 100 | > 100 | > 100 | > 100 | > 100 | > 100 | – | – | – | – | – | – | – | – | – | – | –
27 | O=C1C(=O)N(c2ccc(Cl)cc2)C(=O)C(=O)C1c1nc2ccccc2o1 | > 100 | > 100 | > 100 | > 100 | > 100 | > 100 | > 100 | > 100 | > 100 | – | – | – | – | – | – | – | – | – | – | –
28 | O=S(=O)([O-])c1ccc(N=Cc2ccccc2[O-])cc1.O=S(=O)([O-])c1ccc(N=Cc2ccccc2[O-])cc1.[Co+2] | > 100 | > 100 | > 100 | > 100 | > 100 | > 100 | > 100 | – | > 100 | > 100 | 76.8 | > 100 | > 100 | > 100 | 79.6 | – | 76.7 | – | – | 52.1
29 | COc1cc(/C=C(\NC(=O)c2ccccc2)c2nc3ccc4c(c3[nH]2)C(=O)c2ccccc2C4=O)cc(OC)c1OC | > 100 | > 100 | > 100 | > 100 | – | > 100 | > 100 | > 100 | > 100 | – | – | – | – | – | – | – | – | – | – | –
30 | CN1CN(C2OC(CO)C(O)C2O)c2nc(N)[nH]c(=O)c21 (centres undefined) | > 100 | > 100 | > 100 | > 100 | > 100 | > 100 | > 100 | > 100 | > 100 | – | – | – | – | – | – | – | – | – | – | –
31 | O=c1c2ccc(S(=O)(=O)c3ccc4c(=O)n5c6ccccc6nc5c5cccc3c45)c3cccc(c32)c2nc3ccccc3n12 | 18.2 | > 100 | 37.9 | > 100 | 30.2 | > 100 | – | 35.5 | > 100 | – | – | – | – | – | – | – | – | – | – | –
32 | CC/C=C\C[C@H](F)C/C=C1/C(=O)C=C[C@@H]1C/C=C\CCCC(=O)OC | 8.58 | 2.1 | 9.23 | 8.7 | 9.07 | 5.8 | – | 6.57 | 9.55 | 1.94 | 0.948 | 2.35 | 2.03 | 2.46 | 1.65 | 1.86 | 2.56 | 3.51 | 21 | –
